What was measured:
advanced solid tumors = assay: FIGHT-102 efficacy, investigator-assessed RECIST 1.1; assay type: in vivo, human; set-up: key to Best overall response: PR, partial response; SD, stable disease; PD, progressive disease; NE, not evaluable
Experimental: Efficacy assessments occurred at screening (baseline scan) and on Day 15 of every third cycle with a ±2‐day window. Tumor status was assessed by the investigator using appropriate disease‐specific techniques. For solid tumors, the Response Evaluation Criteria in Solid Tumors (RECIST) 1.1 criteria were used,[19] and the recommended method for measuring tumor burden was computed tomography scan. Alternative modalities compatible with RECIST 1.1 could be used at the investigator's discretion provided they were used consistently throughout the study.
Both the efficacy and the safety population included all patients who received at least 1 dose of study drug. The PK/pharmacodynamic population included all patients who received at least one dose of study drug and provided at least one postdose plasma sample for PK/pharmacodynamic measurement. No comparisons are made between patients or against historical controls; only comparisons to pretreatment conditions were made.

[1] = FIGHT-101; cited from earlier work
[2] = cited from earlier work
[3] = Part 1, 13.5 mg ID, breast cancer, local no alteration detected
[4] = Part 1, 13.5 mg ID, cholangiocarcinoma, central FGF1 amp, FGFR2 amp
[5] = Part 1, 13.5 mg ID, other (intrahepatic cholangiocarcinoma), central no alteration detected
[6] = Part 1, 13.5 mg ID, other (lower bile duct cancer), central FGF6 mutation (p.S143N)
[7] = Part 1, 18 mg ID, neuroendocrine cancer, local FGF6/23 amp
[8] = Part 1, 18 mg ID, other (intrahepatic cholangiocarcinoma), not tested
[9] = Part 2, 13.5 mg CD, breast cancer, local FGFR1 amp, FGFR3 mutation
[10] = Part 2, 13.5 mg CD, colorectal cancer, central FGFR1 amp
[11] = Part 2, 13.5 mg CD, gallbladder cancer, central FGF3/4/19 amp
[12] = Part 2, 13.5 mg CD, other (prostate cancer), central FGFR1 amp
[13] = Part 2, 13.5 mg CD, other (rectal cancer), central FGFR1 amp
[14] = Part 2, 13.5 mg CD, other (uterine cervix carcinoma), central FGFR2 amp
[15] = Part 2, 13.5 mg CD, urothelial tract/bladder cancer (bladder cancer), central FGF3/4/19 amp, FGFR3 alteration
[16] = Part 2, 13.5 mg CD, urothelial tract/bladder cancer (renal pelvis cancer), central FGF3/4/19 amp
[17] = Part 2, 13.5 mg ID, breast cancer, central FGFR1 amp
[18] = Part 2, 13.5 mg ID, cholangiocarcinoma, central FGFR2 alteration, local FGFR2 translocation
[19] = Part 2, 13.5 mg ID, cholangiocarcinoma, central FGFR3 mutation
[20] = Part 2, 13.5 mg ID, colorectal cancer, central FGFR1 amp
[21] = Part 2, 13.5 mg ID, esophageal cancer, central FGF3/4/12/19 amp
[22] = Part 2, 13.5 mg ID, esophageal cancer, central FGFR1 amp
[23] = Part 2, 13.5 mg ID, lung cancer (NSCLC), central FGFR1 amp, FGF12 amp
[24] = Part 2, 13.5 mg ID, other (apocrine sweat gland carcinoma), central FGFR2 amp
[25] = Part 2, 13.5 mg ID, other (intrahepatic cholangiocarcinoma), central FGFR3 fusion
[26] = Part 2, 13.5 mg ID, other (urachal cancer), central FGF3 amp
[27] = Part 2, 13.5 mg ID, urothelial tract/bladder cancer (bladder cancer), central FGFR3 mutation (p.Y373C)
[28] = Part 2, 13.5 mg ID, urothelial tract/bladder cancer (renal pelvis cancer), central FGF3/4/19 amp

CCN1C(=O)N(c2c(F)c(OC)cc(OC)c2F)Cc2cnc3[nH]c(CN4CCOCC4)cc3c21 [Pemigatinib]
Best overall response of complete response or PR (advanced solid tumors; Part 1): no patient | Median best percentage change from baseline in target lesion size (advanced solid tumors; Part 1): −2.6% | Best overall response stable disease (advanced solid tumors; Part 1, 7 patients): 50.0% | Best overall response (advanced solid tumors; Part 1, 9 mg ID, gastric cancer): SD | Best change in sum of target lesion diameters (advanced solid tumors; Part 1, 9 mg ID, gastric cancer, central and local not tested): –13.3% | Best overall response (advanced solid tumors; Part 1, 9 mg ID, other (epithelioid hemangioendothelioma)): SD | Best change in sum of target lesion diameters (advanced solid tumors; Part 1, 9 mg ID, other (epithelioid hemangioendothelioma), central and local not tested): –12.6% | Best overall response (advanced solid tumors; Part 1, 9 mg ID, other (medulloblastoma), local no alteration detected): PD | Best change in sum of target lesion diameters (advanced solid tumors; [3]): 28.1% | Best overall response (advanced solid tumors; [3]): PD | Best change in sum of target lesion diameters (advanced solid tumors; [4]): –8.5% | Best overall response (advanced solid tumors; [4]): SD | Best overall response (advanced solid tumors; Part 1, 13.5 mg ID, colorectal cancer, FGFR1 amp): PD | Best change in sum of target lesion diameters (advanced solid tumors; Part 1, 13.5 mg ID, colorectal cancer, central and local FGFR1 amp): –21.1% | Best overall response (advanced solid tumors; Part 1, 13.5 mg ID, lung cancer (NSCLC)): SD | Best change in sum of target lesion diameters (advanced solid tumors; Part 1, 13.5 mg ID, lung cancer (NSCLC), not tested): –29.0% | Best change in sum of target lesion diameters (advanced solid tumors; [5]): 4.4% | Best overall response (advanced solid tumors; [5]): SD | Best change in sum of target lesion diameters (advanced solid tumors; [6]): –5.1% | Best overall response (advanced solid tumors; [6]): SD | Best change in sum of target lesion diameters (advanced solid tumors; [7]): 37.5% | Best overall response (advanced solid tumors; [7]): PD | Best change in sum of target lesion diameters (advanced solid tumors; Part 1, 18 mg ID, other (intrahepatic cholangiocarcinoma), central none, local FGFR2 fusion): 0% | Best overall response (advanced solid tumors; Part 1, 18 mg ID, other (intrahepatic cholangiocarcinoma), local FGFR2 fusion): SD | Best change in sum of target lesion diameters (advanced solid tumors; [8]): 16.7% | Best overall response (advanced solid tumors; [8]): PD | Best overall response (advanced solid tumors; Part 1, 18 mg ID, other (pancreatic head cancer)): PD | Best change in sum of target lesion diameters (advanced solid tumors; Part 1, 18 mg ID, other (pancreatic head cancer), local no alteration detected): 1.0% | Median of best percentage change from baseline in target lesion size (advanced solid tumors; Part 2): 15.2% | Patients achieving PR (advanced solid tumors; Part 2, 13.5 mg CD): 4 n | Patients achieving PR (advanced solid tumors; Part 2, 13.5 mg ID): 1 n | Partial response (advanced solid tumors; Part 2, 5 patients): 16.7% | Stable disease (advanced solid tumors; Part 2, 6 patients): 20% | Best change in sum of target lesion diameters (advanced solid tumors; [9]): 6.4% | Best overall response (advanced solid tumors; [9]): NE | Best overall response (advanced solid tumors; Part 2, 13.5 mg CD, breast cancer, local FGFR2 amp (best change –26.2%)): SD | Best overall response (advanced solid tumors; Part 2, 13.5 mg CD, breast cancer, local FGFR2 amp (best change –44.4%)): PR | Best change in sum of target lesion diameters (advanced solid tumors; Part 2, 13.5 mg CD, breast cancer, local FGFR2 amp (patient with PR)): –44.4% | Best change in sum of target lesion diameters (advanced solid tumors; Part 2, 13.5 mg CD, breast cancer, local FGFR2 amp (patient with SD)): –26.2% | Best change in sum of target lesion diameters (advanced solid tumors; Part 2, 13.5 mg CD, cholangiocarcinoma, central none, local FGFR2 translocation): –30.6% | Best overall response (advanced solid tumors; Part 2, 13.5 mg CD, cholangiocarcinoma, local FGFR2 translocation): PR | Best change in sum of target lesion diameters (advanced solid tumors; [10]): 26.5% | Best overall response (advanced solid tumors; [10]): PD | Best change in sum of target lesion diameters (advanced solid tumors; Part 2, 13.5 mg CD, colorectal cancer, central none, local FGF19 amp): 41.0% | Best overall response (advanced solid tumors; Part 2, 13.5 mg CD, colorectal cancer, local FGF19 amp): PD | Best overall response (advanced solid tumors; Part 2, 13.5 mg CD, esophageal cancer, FGFR3 translocation: fusion): SD | Best change in sum of target lesion diameters (advanced solid tumors; Part 2, 13.5 mg CD, esophageal cancer, central and local FGFR3 translocation: fusion): –4.3% | Best change in sum of target lesion diameters (advanced solid tumors; [11]): –43.8% | Best overall response (advanced solid tumors; [11]): PR | Best change in sum of target lesion diameters (advanced solid tumors; [12]): 15.2% | Best overall response (advanced solid tumors; [12]): PD | Best change in sum of target lesion diameters (advanced solid tumors; [13]): 0.0% | Best overall response (advanced solid tumors; [13]): SD | Best change in sum of target lesion diameters (advanced solid tumors; [14]): 22.7% | Best overall response (advanced solid tumors; [14]): PD | Best change in sum of target lesion diameters (advanced solid tumors; [15]): –37.2% | Best overall response (advanced solid tumors; [15]): PR | Best change in sum of target lesion diameters (advanced solid tumors; [16]): 12.1% | Best overall response (advanced solid tumors; [16]): PD | Best change in sum of target lesion diameters (advanced solid tumors; [17]): 18.1% | Best overall response (advanced solid tumors; [17]): PD | Best change in sum of target lesion diameters (advanced solid tumors; [18]): –13.8% | Best overall response (advanced solid tumors; [18]): SD | Best change in sum of target lesion diameters (advanced solid tumors; [19]): 30.9% | Best overall response (advanced solid tumors; [19]): PD | Best change in sum of target lesion diameters (advanced solid tumors; [20]): 44.7% | Best overall response (advanced solid tumors; [20]): PD | Best change in sum of target lesion diameters (advanced solid tumors; [21]): 34.9% | Best overall response (advanced solid tumors; [21]): PD | Best overall response (advanced solid tumors; Part 2, 13.5 mg ID, esophageal cancer, central FGF3/4/19 amp, local FGF19 amp): PD | Best change in sum of target lesion diameters (advanced solid tumors; [22]): 6.5% | Best overall response (advanced solid tumors; [22]): SD | Best change in sum of target lesion diameters (advanced solid tumors; Part 2, 13.5 mg ID, esophageal cancer, central FGFR1 amp, FGF3/4/19 amp (first of two such patients)): 37.8% | Best overall response (advanced solid tumors; Part 2, 13.5 mg ID, esophageal cancer, central FGFR1 amp, FGF3/4/19 amp (first of two)): PD | Best change in sum of target lesion diameters (advanced solid tumors; Part 2, 13.5 mg ID, esophageal cancer, central FGFR1 amp, FGF3/4/19 amp (second of two such patients)): 3.0% | Best overall response (advanced solid tumors; Part 2, 13.5 mg ID, esophageal cancer, central FGFR1 amp, FGF3/4/19 amp (second of two)): PD | Best change in sum of target lesion diameters (advanced solid tumors; Part 2, 13.5 mg ID, gallbladder cancer, central none, local FGFR3 mutation): 25.0% | Best overall response (advanced solid tumors; Part 2, 13.5 mg ID, gallbladder cancer, local FGFR3 mutation): PD | Best change in sum of target lesion diameters (advanced solid tumors; [23]): 22.2% | Best overall response (advanced solid tumors; [23]): PD | Best change in sum of target lesion diameters (advanced solid tumors; [24]): –42.1% | Best overall response (advanced solid tumors; [24]): PR | Best change in sum of target lesion diameters (advanced solid tumors; [25]): 65.2% | Best overall response (advanced solid tumors; [25]): PD | Best change in sum of target lesion diameters (advanced solid tumors; [26]): 44.8% | Best overall response (advanced solid tumors; [26]): PD | Best overall response (advanced solid tumors; Part 2, 13.5 mg ID, pancreatic cancer (neuroendocrine), central FGFR1 amp): PD | Best change in sum of target lesion diameters (advanced solid tumors; Part 2, 13.5 mg ID, pancreatic cancer (neuroendocrine), central FGFR1 amp, local FGFR1 mutation (p.N577K)): 40.8% | Best change in sum of target lesion diameters (advanced solid tumors; [27]): –19.6% | Best overall response (advanced solid tumors; [27]): SD | Best change in sum of target lesion diameters (advanced solid tumors; [28]): 24.2% | Best overall response (advanced solid tumors; [28]): PD | Median duration of response (advanced solid tumors; responders, Part 2, 95% CI: 4.17, 14.95): 9.56 months | Most common (>30%) overall TEAEs [1]: hyperphosphatemia, fatigue, dry mouth, stomatitis, diarrhea, and alopecia | Recommended dosage for further studies [1]: 13.5 mg QD | AUC0-24 geometric mean ([2]; 13.5 mg QD steady state, CV% 54.1): 2.62 µM·h | Geometric mean half-life ([2]; 13.5 mg QD, CV% 51.6): 15.4 h | Cmax ([2]; 13.5 mg QD, CV% 56.4, read-out: Steady-state Cmax geometric mean): 236 nM | Terminal half-life ([2]; dose-independent): 15 h | Time to reach Cmax ([2]; doses of ≥6 mg): 1 to 2 h

Reference: publication PMC10225205 (Cancer Medicine, 2023)
